# Results taken from paper PMC4681344, “Selective targeting of the BRG/PB1 bromodomains impairs embryonic and trophoblast stem cell maintenance” (Science Advances, 2015).
# Assays:
# supercoiled pBR322 DNA = test: DNA unwinding assay; conditions: 1, 5, or 10 μM
# Method: DNA incubated with DMSO (Sigma-Aldrich; D8418) in the presence or absence of the enzyme was run as control. After extraction by butanol (Sigma-Aldrich; 281549) and chloroform/isoamyl alcohol 24:1 (Sigma-Aldrich; C0549), the DNA was run in a 1% (w/v) agarose gel (Web Scientific; AGR-500) with a 1-kb DNA ladder (Life Technologies; 10787) for 4 hours at 80 V. The gel was then stained with SYBR Safe for 30 min before ultraviolet visualization (UVP; BioDoc-It Imaging System).
# [1] = Stability in aqueous solution; assay type: physicochemical; conditions: 37°C, read-out: Half-life in aqueous solutions
# [2] = test system: NCI-60 panel of tumor cell lines; test: NCI-60 cell proliferation and survival; assay type: cell-based; conditions: 10 μM inhibitor
# [3] = test system: embryonic stem cells (CRG8 ESCs); test: ESC stemness and differentiation (microscopy, qRT-PCR); assay type: cell-based
# Description: CRG8 ESCs were maintained in serum-containing media supplemented with LIF (1000 U/ml; ESGRO, ESG1106) on feeder-free gelatin-coated wells. ESC culture media contained Dulbecco’s modified Eagle’s medium/knockout (Invitrogen), 15% ES-qualified fetal bovine serum (Invitrogen), 1% penicillin-streptomycin (Lonza, DE17-602E), 1% L-glutamine (Lonza, BE17-605E), 1% sodium pyruvate (Invitrogen, 11360), 1% β-mercaptoethanol, and 1% nonessential amino acids (Invitrogen, 11140). Differentiation of ESCs was induced in the presence of retinoic acid (Sigma, R2625) by withdrawal of LIF supplementation.
# qRT-PCR ESC samples were collected by culturing ESC in stemness conditions in the presence of 1 μM PF1-3 or control compound for 1 or 8 days. ESC-differentiated samples were collected by treating the cells with PF1-3 or control compound 24 hours before differentiation induction. RNA was isolated using RNeasy Mini Kit (Qiagen, 74106) following the manufacturer’s instructions. At least two samples were collected for each group, and each qRT-PCR was run in triplicates. The qRT-PCR data were normalized against the housekeeping genes Gapdh, Ppia, and Hprt and expressed against control compound–treated ESC in stemness conditions. A list of primers is compiled in tables S5 and S6.
# [4] = test system: 102 cellular receptors as well as 30 enzyme assays; test: Commercial CEREP screening panel
# [5] = target: T1, full-length GFP-tagged BRM in U2OS cells (Homo sapiens, UniProt P51531); test: Fluorescence recovery after photobleaching (FRAP); assay type: cell-based
# T1 construct: constructs encoding GFP fused to the N terminus of full-length BRM; expressed in transfected cells; host or cells: U2OS
# T1 sequence (P51531 whole entry, the tested form may be a part): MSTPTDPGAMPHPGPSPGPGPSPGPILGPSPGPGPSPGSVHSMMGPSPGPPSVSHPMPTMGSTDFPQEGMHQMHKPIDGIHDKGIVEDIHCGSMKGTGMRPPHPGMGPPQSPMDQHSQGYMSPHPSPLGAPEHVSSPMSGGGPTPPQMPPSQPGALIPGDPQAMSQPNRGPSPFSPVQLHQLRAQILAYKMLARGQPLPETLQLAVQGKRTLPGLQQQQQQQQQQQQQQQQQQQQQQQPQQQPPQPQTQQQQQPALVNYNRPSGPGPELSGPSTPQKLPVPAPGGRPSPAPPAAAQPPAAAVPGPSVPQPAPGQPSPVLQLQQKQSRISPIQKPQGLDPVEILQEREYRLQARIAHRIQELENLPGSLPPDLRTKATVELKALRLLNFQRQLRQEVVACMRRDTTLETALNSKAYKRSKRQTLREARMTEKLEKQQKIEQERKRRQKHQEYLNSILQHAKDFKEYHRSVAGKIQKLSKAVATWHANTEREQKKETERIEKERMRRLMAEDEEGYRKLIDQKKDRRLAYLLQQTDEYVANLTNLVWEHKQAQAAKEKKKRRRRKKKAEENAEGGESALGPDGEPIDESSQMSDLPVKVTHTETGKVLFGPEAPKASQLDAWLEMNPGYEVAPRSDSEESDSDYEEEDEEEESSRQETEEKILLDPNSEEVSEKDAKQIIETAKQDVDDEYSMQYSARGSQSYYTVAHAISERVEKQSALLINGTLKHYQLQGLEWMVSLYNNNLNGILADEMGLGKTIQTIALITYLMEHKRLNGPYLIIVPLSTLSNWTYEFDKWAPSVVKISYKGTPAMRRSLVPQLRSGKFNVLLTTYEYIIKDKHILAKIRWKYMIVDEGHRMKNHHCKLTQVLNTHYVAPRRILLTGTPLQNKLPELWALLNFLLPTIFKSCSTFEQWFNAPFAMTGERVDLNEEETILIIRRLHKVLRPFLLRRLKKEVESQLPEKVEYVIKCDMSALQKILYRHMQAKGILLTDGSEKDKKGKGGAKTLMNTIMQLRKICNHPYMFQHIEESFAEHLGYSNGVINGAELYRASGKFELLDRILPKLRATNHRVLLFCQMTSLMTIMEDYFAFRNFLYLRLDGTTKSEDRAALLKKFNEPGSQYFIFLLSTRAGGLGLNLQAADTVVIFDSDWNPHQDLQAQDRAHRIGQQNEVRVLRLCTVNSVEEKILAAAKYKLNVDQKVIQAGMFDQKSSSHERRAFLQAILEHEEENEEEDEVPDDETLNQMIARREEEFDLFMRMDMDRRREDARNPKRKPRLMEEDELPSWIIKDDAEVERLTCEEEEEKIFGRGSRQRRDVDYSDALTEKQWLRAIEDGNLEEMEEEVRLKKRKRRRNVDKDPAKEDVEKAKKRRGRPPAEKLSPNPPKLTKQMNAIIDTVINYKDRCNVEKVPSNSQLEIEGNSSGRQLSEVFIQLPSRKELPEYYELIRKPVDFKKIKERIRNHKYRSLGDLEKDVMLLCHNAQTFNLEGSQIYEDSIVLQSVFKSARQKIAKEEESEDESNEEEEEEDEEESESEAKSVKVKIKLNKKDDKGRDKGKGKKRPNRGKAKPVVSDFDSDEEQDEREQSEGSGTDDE
# Method: FRAP studies were performed using a protocol modified from previous studies ([24]). In brief, U2OS cells were transfected (FuGENE HD, Roche) with mammalian overexpression constructs encoding GFP fused to the N terminus of full-length BRM. The FRAP and imaging system consisted of a Zeiss LSM 710 laser scanning and control system coupled to an inverted Zeiss Axio Observer.Z1 microscope equipped with a high numerical aperture (1.3) 40× oil immersion objective. Samples were placed in an incubator chamber capable of maintaining temperature and humidity. […] Once an initial scan had been taken, a region of interest corresponding to about 50% of the entire GFP-positive nucleus was empirically selected for bleaching. A time-lapse series was then taken to record GFP recovery using 1% of the power used for bleaching. The image data sets and fluorescence recovery data were exported from ZEN 2009, the microscope control software, into Microsoft Excel to determine the average half-time for full recovery for 10 to 20 cells per treatment point.
# [6] = test system: trophoblast stem cells (TSCs); test: TSC differentiation gene expression (RNA-seq, qRT-PCR); assay type: cell-based, mouse
# Method: Derivation and culture of TSCs were performed as previously described ([34]). Shortly, TSCs were cultured in the absence of feeders in medium supplemented with FGF4 (30 ng/ml; R&D Systems, 235-F4-025/CF), heparin (1.2 μg/ml; Sigma, H3149), and 70% conditional medium (harvested from mitomycin-treated primary mouse embryonic fibroblasts). TSC medium contained RPMI 1640 (BD Biosciences, 354230), 20% ES-qualified fetal bovine serum (Invitrogen), 1% penicillin-streptomycin (Lonza, DE17-602E), 1% L-glutamine (Lonza, BE17-605E), 1% sodium pyruvate (Invitrogen, 11360), and 0.1 mM β-mercaptoethanol. To induce differentiation, TSCs were cultured on feeder-free conditions in TSC medium lacking FGF4 and heparin supplementation.
# RNA was isolated as for the ESC samples.
# RNA-Seq Library synthesis and analysis were performed at the DKFZ sequencing genomics core facility (Heidelberg, Germany). Mapping and bioinformatics analysis were performed using TopHat, EdgeR Gene-E, and HOMER ([35]–[37]). The raw data from the RNA set results are available through Gene Expression Omnibus (GEO) (accession no. GSE65358). Each replicate represents at least 12 million reads, a density sufficient for qualitative analysis of gene expression. The reads were aligned to the mm10 mouse genome, allowing a mismatch of 2%. We used WebGestalt to find affected pathways ([38]).
# [7] = test system: H3K27me3 at Brg1 and Stat3 target genes in ESCs; test: ChIP of H3K27me3 in ESCs; assay type: cell-based; conditions: promoters and TSSs, vs PFI-3oMet
# Method: ChIP experiments were carried out with Covaris truChIP chromatin shearing reagent according to the manufacturer’s instructions with certain modifications. ESCs were fixed on-plate with 1% formaldehyde in phosphate-buffered saline for 5 min. Cells (10 million) were resuspended in 1 ml of shearing buffer and sonicated (Covaris S220) for 200 cycles per burst, 140 W peak power, 5% duty factor for 15 min in 1-ml Covaris tubes. The supernatant was then diluted to a protein concentration of 1.7 mg ml^−1, and 350 to 500 μg of protein were used for each immunoprecipitation reaction with anti-H3K27me3 (pab-069-050, Diagenode). The targeted gene fragments were amplified with primers used by Ho et al. ([27]).
# [8] = test system: 48 members of the human BRD family; test: Thermal shift (ΔTm) selectivity screening; assay type: binding; conditions: profiled against 48 BRDs; compounds at 10 μM
# Method: Thermal melting experiments were carried out using an Mx3005P Real-Time PCR machine (Stratagene). Proteins were buffered in 10 mM Hepes (pH 7.5), 500 mM NaCl, and assayed in a 96-well plate at a final concentration of 2 μM in 20-μl volume. Compounds were added at a final concentration of 10 μM. SYPRO Orange (Molecular Probes) was added as a fluorescence probe at a dilution of 1:1000. Excitation and emission filters for the SYPRO Orange dye were set to 465 and 590 nm, respectively. The temperature was raised with a step of 3°C/min from 25° to 96°C, and fluorescence readings were taken at each interval.
# [9] = target: T2, fifth bromodomain of PB1 [PB1(5)] (Homo sapiens, UniProt Q86U86); test: Isothermal titration calorimetry (ITC) of SA; assay type: binding; conditions: 15°C, read-out: KD (dissociation constant)
# T2 construct: isothermal titration calorimetry (ITC) with the fifth bromodomain of PB1 [PB1(5)]; made in house
# T2 sequence (Q86U86 653-763 limits assumed): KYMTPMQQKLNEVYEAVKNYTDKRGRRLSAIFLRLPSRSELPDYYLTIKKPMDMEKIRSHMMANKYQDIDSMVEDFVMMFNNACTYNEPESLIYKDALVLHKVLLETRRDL
# Method: Experiments were carried out on a VP-ITC microcalorimeter (MicroCal). All experiments were performed at 15°C in 50 mM Hepes (pH 7.5), 150 mM NaCl. The titrations were conducted using an initial injection of 2 μl followed by 34 identical injections of 8 μl. The dilution heats were measured on separate experiments and were subtracted from the titration data. Thermodynamic parameters were calculated using ΔG = ΔH − TΔS = −RTlnKB, where ΔG, ΔH, and ΔS are the changes in free energy, enthalpy, and entropy of binding, respectively. In all cases, a single binding site model was used.
# BAF BRDs = test: Initial library screening for interaction with BAF BRDs; assay type: binding
# [10] = 4 days of differentiation, vs control compound
smiles,measurement,setting,value
"O=C(/C=C/N1C[C@H]2C[C@@H]1CN2c1ccccn1)c1ccccc1O [PFI-3, (E)-1-(2-hydroxyphenyl)-3-((1R,4R)-5-(pyridin-2-yl)-2,5-diazabicyclo[2.2.1]heptan-2-yl)prop-2-en-1-one]",DNA intercalation,supercoiled pBR322 DNA,did not intercalate into DNA
same,half-life,[1],> 168 h
same,Toxicity (cell proliferation and survival),[2],did not result in significant toxicity for any of the cell lines tested
same,Transcription of stemness genes,"[3]; 1 μM, 1 and 8 days, qRT-PCR",initial up- and subsequent down-regulation of stemness genes
same,Morphological differentiation of ESCs,"[3]; 1 μM, 8 days, stemness-maintaining conditions (LIF), vs PFI-3oMet",led to visible differentiation
same,Gata4 expression,[3]; [10],not significantly altered
same,Nes expression,[3]; [10],increased
same,T (brachyury homolog) transcription,[3]; [10],at the expense of the brachyury homolog T transcription
same,Interactions in CEREP panel,[4],only interactions against four GPCRs (G protein–coupled receptor) with micromolar affinity
same,Half-recovery time of wild-type GFP-BRM (FRAP),"[5]; 2.5 μM SAHA, compound exposure 1 hour",significantly accelerated the half-recovery time
same,Ability to displace BRM from chromatin after 24 hours,"[5]; exposure 24 hours, 37°C",did not show any loss
same,"Transcription of TSC differentiation markers (Prl3d1, Tpbpa)","[6]; 2 μM, differentiation (D4), qRT-PCR",marked increase
same,"Levels of Eomes, Brg1, Brm, and Pbrm1/Baf180",[6]; qRT-PCR,not affected
same,Prl7d1 and Tpbpa transcription after washout,[6]; washout of the inhibitor during differentiation,could still be observed after washout of the inhibitor during differentiation of TSCs albeit to a lesser extent
same,H3K27me3 at Brg1 and Stat3 binding sites,[7],increase of H3K27me3
"O=C(O)c1ccccc1O [SA, salicylic acid]",Selectivity in temperature shift (ΔTm) assay,[8],good selectivity for BRDs present in BRG1/BRM and PB1
same,Kd,[9],250 µM
CCOC(=O)Nc1cc(-c2ccc(C)c(NS(C)(=O)=O)c2)nn2c(C)nnc12 [bromosporine],Binding to BAF BRDs,BAF BRDs,did not exhibit any binding
